Data: patent US5681833A, “Benzodiazepine derivatives” (Merck, Sharp & Dohme Ltd., priority 1992, dated 1997)
Like-named read-outs stand apart in the source and are kept apart here.

Legend:
CCK receptor (pancreas) = biological target: T1, CCK receptor (pancreas) (Rattus norvegicus, UniProt P30551); experiment: CCK Receptor Binding (Pancreas), inhibition of specific 125I-CCK-8 binding; parameters: species or system rat (male Sprague-Dawley)
T1 construct: The whole pancreas was dissected free of fat tissue and was homogenized; from tissue; host or cells: whole pancreas of male Sprague-Dawley rats, homogenate membranes
T1 sequence (P30551 1-444): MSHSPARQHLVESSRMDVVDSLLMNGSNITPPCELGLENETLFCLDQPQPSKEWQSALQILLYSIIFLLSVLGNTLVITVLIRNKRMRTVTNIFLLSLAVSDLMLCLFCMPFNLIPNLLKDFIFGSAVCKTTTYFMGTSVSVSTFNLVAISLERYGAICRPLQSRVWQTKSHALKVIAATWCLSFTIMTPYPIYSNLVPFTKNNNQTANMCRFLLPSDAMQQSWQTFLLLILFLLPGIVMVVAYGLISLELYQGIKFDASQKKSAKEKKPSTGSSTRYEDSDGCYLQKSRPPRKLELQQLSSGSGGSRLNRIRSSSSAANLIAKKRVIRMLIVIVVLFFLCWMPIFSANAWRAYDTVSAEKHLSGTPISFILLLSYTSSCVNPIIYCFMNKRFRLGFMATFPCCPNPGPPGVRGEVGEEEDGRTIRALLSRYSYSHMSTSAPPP
Protocol: 1. CCK Receptor Binding (Pancreas)
CCK-8 sulphated was radiolabelled with ^125 I-Bolton Hunter reagent (2000 Ci/mmole). Receptor binding was performed according to Chang and Lotti (Proc. Natl. Acad. Sci. 83, 4923-4926, 1986) with minor modifications.
Male Sprague-Dawley rats (150-200 g) were sacrificed by decapitation. The whole pancreas was dissected free of fat tissue and was homogenized in 25 volumes of ice-cold 10 mM N-2-hydroxyethyl-piperazine-N'-2-ethane sulphonic acid (HEPES) buffer with 0.1% soya bean trypsin inhibitor (pH 7.4 at 25° C.) with a Kinematica Polytron. The homogenates were centrifuged at 47,800 g for 10 min. Pellets were resuspended in 10 volumes of binding assay buffer (20 mM (HEPES)), 1 mM ethylene glycol-bis-(β-aminoethylether-N,N'-tetraacetic acid) (EGTA), 5 mM MgCl2, 150 mM NaCl, bacitracin 0.25 mg/ml, soya bean trypsin inhibitor 0.1 mg/ml, and bovine serum albumin 2 mg/ml pH 6.5 at 25° C.) using a Teflon (trademark) homogenizer, 15 strokes at 500 rpm. The homogenate was further diluted in binding assay buffer to give a final concentration of 0.5 mg original wet weight/1 ml buffer. […] All assays were run in duplicate. The reaction mixtures were incubated at 25° C. for 2 hours and the reaction terminated by rapid filtration (Brandell 24 well cell harvester) over Whatman GF/C filters, washing 3×4 mls with ice-cold 100 Mm NaCl. The radioactivity on the filters was counted with a LKB gamma counter.

CCK receptor (brain) = biological target: T2, CCK receptor (brain) (Cavia porcellus, UniProt H0VZC5); experiment: CCK Receptor Binding (Brain), inhibition of specific 125I-CCK-8 binding; parameters: species or system guinea pig (male Hartley)
T2 construct: the cortex was removed and homogenized in 25 mL ice-cold 0.32M sucrose; from tissue; host or cells: cortex of male Hartley guinea pigs, P2 membranes
T2 sequence (H0VZC5 1-426): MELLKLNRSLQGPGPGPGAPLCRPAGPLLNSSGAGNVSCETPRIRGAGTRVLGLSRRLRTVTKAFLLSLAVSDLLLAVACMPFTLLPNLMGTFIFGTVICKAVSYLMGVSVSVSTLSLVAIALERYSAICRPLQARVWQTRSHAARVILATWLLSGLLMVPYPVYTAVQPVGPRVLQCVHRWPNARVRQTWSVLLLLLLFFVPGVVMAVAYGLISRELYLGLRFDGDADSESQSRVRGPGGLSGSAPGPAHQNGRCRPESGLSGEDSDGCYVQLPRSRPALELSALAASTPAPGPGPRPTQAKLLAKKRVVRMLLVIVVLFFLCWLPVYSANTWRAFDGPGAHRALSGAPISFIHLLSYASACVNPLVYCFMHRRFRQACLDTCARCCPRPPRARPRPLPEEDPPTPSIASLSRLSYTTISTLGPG
Protocol: 2. CCK Receptor Binding (Brain)
CCK-8 sulphated was radiolabelled and the binding was performed according to the description for the pancreas method with minor modifications.
Male Hartley guinea pigs (300-500 g) were sacrificed by decapitation and the cortex was removed and homogenized in 25 mL ice-cold 0.32M sucrose. The homogenates were centrifuged at 1000 g for 10 minutes and the resulting supernatant was recentrifuged at 20,000 g for 20 minutes. The P2 pellet was resuspended in binding assay buffer (20mM HEPES, 5 mM MgCl2, 0.25 mg/ml bacitracin, 1 mM EGTA pH 6.5 at 25° C.), using a Teflon (trademark) homogenizer (5 strokes at 500 rpm) to give a final concentration of 10 mg original wet weight/1.2 ml buffer. […] All assays were run in duplicate. The reaction mixtures were incubated at 25° C. for 2 hours and then the reaction was terminated by rapid filtration (Brandell 24 well cell harvester) on Whatman GF/C filters with 3×5 ml washes of cold 100 mM NaCl. The radioactivity on the filters was counted with a LKB gamma counter.

[1] = rat pancreas membranes, 50 pM 125I-CCK-8, 25° C., 2 hours, pH 6.5, read-out: IC50 125I-CCK Pancreas
[2] = guinea pig cortex membranes, 50 pM 125I-CCK-8, 25° C., 2 hours, pH 6.5, read-out: IC50 125I-CCK Brain

CCCN1C(=O)C(NC(=O)Nc2cccc(Nc3ncc[nH]3)c2)N=C(C2CCCCC2)c2ccccc21 (racemic) [Example 19, N-[3(R,S)-5-Cyclohexyl-2,3-dihydro-2-oxo-1-propyl-1H-1,4-benzodiazepin-3-yl]N'-[3-[(1H-imidazol-2-yl)amino]phenyl]urea]
IC50 (CCK receptor (pancreas); [1]): 1.33 nM
IC50 (CCK receptor (brain); [2]): 82.9 nM

Cc1ccc(NC(=O)NC2N=C(c3ccccc3)c3ccccc3N(C(C)(C)C)C2=O)cc1Nc1nnn[nH]1 (racemic) [Example 16, N-[3(R,S)-1-tert-Butyl-2,3-dihydro-2-oxo-5-phenyl-1H-1,4-benzodiazepin-3-yl]-N'-[4-methyl-3-{(tetrazol-5-yl)amino}phenyl]urea]
IC50 (CCK receptor (pancreas)): 3610 nM
IC50 (CCK receptor (brain); [2]): 497 nM

Cc1ccc(NC(=O)N[C@@H]2N=C(C3CCCCC3)c3ccccc3N(C)C2=O)cc1N(C)c1nn[nH]n1 [Example 11, (+)-N-[3(R)-5-Cyclohexyl-2,3-dihydro-1-methyl-2-oxo-1H-1,4-benzodiazepin-3-yl]-N'-[4-methyl-3-{N-methyl-N-(tetrazol-5-yl)amino}phenyl]urea]
IC50 (CCK receptor (pancreas); [1]): 600 nM

CN1C(=O)C(C)(NC(=O)Nc2cccc(CNc3nnn[nH]3)c2)N=C(c2ccccc2)c2ccccc21 (racemic) [Example 15, N-[3-(R,S)-2,3-Dihydro-1,3-dimethyl-2-oxo-5-phenyl-1H-1,4-benzodiazepin-3-yl]-N'-[3-{(tetrazol-5-yl)aminomethyl}phenyl]urea]
IC50 (CCK receptor (pancreas)): 42.8 nM
IC50 (CCK receptor (brain); [2]): 1300 nM

Cc1ccc(NC(=O)N[C@@H]2N=C(C3CCCCC3)c3ccccc3N(C)C2=O)cc1Nc1nnn[nH]1 [Example 10, (+)-N-[3(R)-5-Cyclohexyl-2,3-dihydro-1-methyl-2-oxo-1H-1,4-benzodiazepin-3-yl]-N'-[4-methyl-3-{(tetrazol-5-yl)amino}phenyl]urea]
IC50 (CCK receptor (pancreas); [1]): 802 nM
IC50 (CCK receptor (brain); [2]): 0.042 nM

CN1C(=O)[C@H](NC(=O)Nc2cccc(CNc3nnn[nH]3)c2)N=C(C2CCCCC2)c2ccccc21 [Example 6, (+)-N-[3(R)-5-Cyclohexyl-2,3-dihydro-1-methyl-2-oxo-1H-1,4-benzodiazepin-3-yl]-N'-[3-{(tetrazol-5-yl)aminomethyl}phenyl]urea]
IC50 (CCK receptor (pancreas); [1]): 153 nM
IC50 (CCK receptor (brain); [2]): 0.284 nM

CN1C(=O)[C@H](NC(=O)Nc2cccc(N(C)c3nnn[nH]3)c2)N=C(C2CCCCC2)c2ccccc21 [Example 4, (+)-N-[3(R)-5-Cyclohexyl-2,3-dihydro-1-methyl-2-oxo-1H-1,4-benzodiazepin-3-yl]-N'-[3-{N-methyl-N-(tetrazol-5-yl)amino}phenyl]urea]
IC50 (CCK receptor (pancreas); [1]): 400 nM
IC50 (CCK receptor (brain); [2]): 0.1 nM

CN1C(=O)[C@H](NC(=O)Nc2cccc(Nc3nn[nH]n3)c2)N=C(c2ccccc2)c2ccccc21 [Example 8, (+)-N-[3(R)-2,3-Dihydro-1-methyl-2-oxo-5-phenyl-1H-1,4-benzodiazepin-3-yl]-N'-[3-{(tetrazol-5-yl)amino}phenyl]urea]
IC50 (CCK receptor (pancreas)): > 3000 nM
IC50 (CCK receptor (brain)): 5.7 nM

CN1C(=O)[C@H](NC(=O)Nc2cccc(N(C)c3nn[nH]n3)c2)N=C(c2ccccc2)c2ccccc21 [Example 7, (+)-N-[3(R)-2,3-Dihydro-1-methyl-2-oxo-5-phenyl-1H-1,4-benzodiazepin-3-yl]-N'-[3-{N-methyl-N-(tetrazol-5-yl)amino}phenyl]urea]
IC50 (CCK receptor (pancreas)): > 3000 nM
IC50 (CCK receptor (brain)): 0.575 nM

CN1C(=O)[C@H](NC(=O)Nc2cccc(CNc3nn[nH]n3)c2)N=C(c2ccccc2)c2ccccc21 [Example 9, (+)-N-[3(R)-2,3-Dihydro-1-methyl-2-oxo-5-phenyl-1H-1,4-benzodiazepin-3-yl]-N'-[3-{(tetrazol-5-yl)aminomethyl}phenyl]urea]
IC50 (CCK receptor (pancreas)): > 3000 nM
IC50 (CCK receptor (brain)): 7.4 nM

CCCN1C(=O)C(NC(=O)Nc2cccc(N(C)c3nnn[nH]3)c2)N=C(N2CCN(C)CC2)c2ccccc21 (single isomer, unassigned; (-)) [Example 17, (-)-N-[2,3-Dihydro-5-(4-methylpiperazin-1-yl)-2-oxo-1-propyl-1H-1,4-benzodiazepin-3-yl]-N'-[3-{N-methyl-N-(tetrazol-5-yl)amino}phenyl]urea]
IC50 (CCK receptor (pancreas); [1]): > 3000 nM
IC50 (CCK receptor (brain); [2]): 0.93 nM

CCCN1C(=O)C(NC(=O)Nc2cccc(CNc3ncc[nH]3)c2)N=C(C2CCCCC2)c2ccccc21 (racemic) [Example 18, N-[3(R,S)-5-Cyclohexyl-2,3-dihydro-2-oxo-1-propyl-1H-1,4-benzodiazepin-3-yl]N'-[3-[(1H-imidazol-2-ylamino)methyl]phenyl]urea]
IC50 (CCK receptor (pancreas); [1]): 109 nM
IC50 (CCK receptor (brain); [2]): 14 nM

Cc1ccc(NC(=O)N[C@@H]2N=C(c3ccccc3)c3ccccc3N(C)C2=O)cc1Nc1nn[nH]n1 [Example 12, (+)-N-[3(R)-2,3-Dihydro-1-methyl-2-oxo-5-phenyl-1H-1,4-benzodiazepin-3-yl]-N'-[4-methyl-3-{(tetrazol-5-yl)amino}phenyl]urea]
IC50 (CCK receptor (pancreas)): > 3000 nM
IC50 (CCK receptor (brain)): 1.09 nM

CN1C(=O)C(NC(=O)Nc2cccc(Nc3nnn[nH]3)c2)N=C(C2CCCCC2)c2ccccc21 (racemic) [Example 2, N-[3(R,S)-5-Cyclohexyl-2,3-dihydro-1-methyl-2-oxo-1H-1,4-benzodiazepin-3-yl]-N'-[3-{(tetrazol-5-yl)amino}phenyl]urea]
IC50 (CCK receptor (pancreas); [1]): 6.5 nM
IC50 (CCK receptor (brain); [2]): 0.31 nM

CN1C(=O)C(NC(=O)Nc2cccc(CNc3nnn[nH]3)c2)N=C(C2CCCCC2)c2ccccc21 (racemic) [Example 1, N-[3(R,S)-5-Cyclohexyl-2,3-dihydro-1-methyl-2-oxo-1H-1,4-benzodiazepin-3-yl]-N'-[3-{(tetrazol-5-yl)aminomethyl}phenyl]urea]
IC50 (CCK receptor (pancreas); [1]): 9.5 nM
IC50 (CCK receptor (brain); [2]): 0.82 nM

CN1C(=O)C(NC(=O)Nc2cccc(N(C)c3nnn[nH]3)c2)N=C(C2CCCCC2)c2ccccc21 (racemic) [Example 3, N-[3(R,S)-5-Cyclohexyl-2,3-dihydro-1-methyl-2-oxo-1H-1,4-benzodiazepin-3-yl]-N'-[3-{N-methyl-N-(tetrazol-5-yl)amino}phenyl]urea]
IC50 (CCK receptor (pancreas); [1]): 10 nM
IC50 (CCK receptor (brain); [2]): 0.11 nM

CN1C(=O)C(NC(=O)Nc2cccc(CNc3ncc[nH]3)c2)N=C(C2CCCCCC2)c2ccccc21 (racemic) [Example 20, N-[3(R,S)-5-Cycloheptyl-2,3-dihydro-1-methyl-2-oxo-1H -1,4-benzodiazepin-3-yl]N'-[3-[(1H-imidazol-2-ylamino)methyl]phenyl]urea]
IC50 (CCK receptor (pancreas); [1]): 84.5 nM
IC50 (CCK receptor (brain); [2]): 33.9 nM

CN1C(=O)[C@H](NC(=O)Nc2ccc3c(c2)N(c2nn[nH]n2)CC3)N=C(c2ccccc2)c2ccccc21 [Example 14, (+)-N-[3(R)-2,3-Dihydro-1-methyl-2-oxo-5-phenyl-1H-1,4-benzodiazepin-3-yl]-N'-[1-(tetrazol-5yl)indolin-6-yl]urea]
IC50 (CCK receptor (brain)): 0.11 nM
